From patent US20050165047A1, “Crystalline fumarate salts of 1-azabicyclo[2.2.2]oct substituted furo[2,3-c]pyridinyl carboxamide and compositions and preparations thereof” (Pfizer Inc, priority 2002, published 2005)
Each block holds one compound with its values, some of them ahead of it.

Assay: Moisture sorption by DMSG on a controlled atmosphere microbalance
Format: physicochemical
Conditions: 25° C.
Method: The sorption of water by the solid lattice at a given relative humidity (RH) was measured by DMSG on a controlled atmosphere microbalance. Scans were carried out at 25° C. from 36% to 0% RH then ramped to 90% RH, and back down to 0% RH with a step size of 3% RH. A sample size of 8 to 14 mg was used. At each step, the balance was considered equilibrated when the mass change was less than 0.01 mg for five consecutive scans. There were 120 seconds between each scan.
Table 3 provides the moisture sorption data at 25° C. for Crystal Forms Ia and Ib of N-[1-azabicyclo[2.2.2]oct-3-yl]furo[2,3-c]pyridine-5-carboxamide.

- % dMass (RH 0%, 36-0% RH): 0.1164%
- % dMass (RH 0.24%, 36-0% RH): 0.1225%
- % dMass (RH 2.62%, 0-90% RH): 0.1479%
- % dMass (RH 3.16%, 36-0% RH): 0.1628%
- % dMass (RH 5.84%, 0-90% RH): 0.1768%
- % dMass (RH 6.36%, 36-0% RH): 0.1899%
- % dMass (RH 8.98%, 0-90% RH): 0.2048%
- % dMass (RH 9.74%, 36-0% RH): 0.2197%
- % dMass (RH 12.2%, 0-90% RH): 0.2293%
- % dMass (RH 12.78%, 36-0% RH): 0.2451%
- % dMass (RH 15.34%, 0-90% RH): 0.2547%
- % dMass (RH 15.78%, 36-0% RH): 0.2678%
- % dMass (RH 18.46%, 0-90% RH): 0.281%
- % dMass (RH 18.8%, 36-0% RH): 0.2932%
- % dMass (RH 21.42%, 0-90% RH): 0.3037%
- % dMass (RH 21.88%, 36-0% RH): 0.3195%
- % dMass (RH 24.66%, 0-90% RH): 0.3335%
- % dMass (RH 25.1%, 36-0% RH): 0.3466%
- % dMass (RH 27.74%, 0-90% RH): 0.3606%
- % dMass (RH 28.16%, 36-0% RH): 0.3772%
- % dMass (RH 30.82%, 0-90% RH): 0.3921%
- % dMass (RH 33.92%, 0-90% RH): 0.4245%
- % dMass (RH 36.96%, 0-90% RH): 0.4586%
- % dMass (RH 39.9%, 0-90% RH): 0.491%
- % dMass (RH 43.18%, 0-90% RH): 0.5348%
- % dMass (RH 46.14%, 0-90% RH): 0.5768%
- % dMass (RH 49.16%, 0-90% RH): 0.6302%
- % dMass (RH 52.12%, 0-90% RH): 0.6871%
- % dMass (RH 55.1%, 0-90% RH): 0.7501%
- % dMass (RH 58.08%, 0-90% RH): 0.8219%
- % dMass (RH 61.08%, 0-90% RH): 0.9068%
- % dMass (RH 64.04%, 0-90% RH): 1.002%
- % dMass (RH 67.02%, 0-90% RH): 1.124%
- % dMass (RH 68.62%, 90-0% RH): 26.01%
- % dMass (RH 70%, 0-90% RH): 1.281%
- % dMass (RH 71.48%, 90-0% RH): 26.27%
- % dMass (RH 72.9%, 0-90% RH): 1.505%
- % dMass (RH 74.3%, 90-0% RH): 26.58%
- % dMass (RH 75.9%, 0-90% RH): 1.925%
- % dMass (RH 77.1%, 90-0% RH): 26.92%
- % dMass (RH 79.2%, 0-90% RH): 26.93%
- % dMass (RH 79.88%, 90-0% RH): 27.36%
- % dMass (RH 82%, 0-90% RH): 27.4%
- % dMass (RH 82.5%, 90-0% RH): 28%
- % dMass (RH 85.04%, 0-90% RH): 28.18%
- % dMass (RH 85.12%, 90-0% RH): 30.2%
- % dMass (RH 87.82%, 0-90% RH): 30.29%
- % dMass (RH 87.9%, 90-0% RH): 32.21%
- % dMass (RH 90.7%, 0-90% RH): 38.78%
- % dMass (RH 90.7%, 90-0% RH): 38.8%
Structure (SMILES): O=C(N[C@H]1CN2CCC1CC2)c1cc2ccoc2cn1 [Crystal Form Ib, N-[(3R)-1-azabicyclo[2.2.2]oct-3-yl]furo[2,3-c]pyridine-5-carboxamide]

- % dMass (RH 0%, 0-90% RH): 0.006227%
- % dMass (RH 0%, 36-0% RH): 0.008896%
- % dMass (RH 0.1%, 36-0% RH): 0.01245%
- % dMass (RH 0.36%, 36-0% RH): 0.01156%
- % dMass (RH 1.3%, 0-90% RH): 0.01512%
- % dMass (RH 1.6%, 36-0% RH): 0.02224%
- % dMass (RH 4.3%, 0-90% RH): 0.0258%
- % dMass (RH 4.74%, 36-0% RH): 0.0338%
- % dMass (RH 7.1%, 0-90% RH): 0.03736%
- % dMass (RH 7.98%, 36-0% RH): 0.0427%
- % dMass (RH 10.1%, 0-90% RH): 0.04448%
- % dMass (RH 10.8%, 36-0% RH): 0.04893%
- % dMass (RH 13.14%, 0-90% RH): 0.05249%
- % dMass (RH 13.96%, 36-0% RH): 0.05515%
- % dMass (RH 16.18%, 0-90% RH): 0.05782%
- % dMass (RH 17.1%, 36-0% RH): 0.06227%
- % dMass (RH 19.28%, 0-90% RH): 0.06227%
- % dMass (RH 19.94%, 36-0% RH): 0.07028%
- % dMass (RH 22.56%, 0-90% RH): 0.07295%
- % dMass (RH 23.18%, 36-0% RH): 0.07739%
- % dMass (RH 25.72%, 0-90% RH): 0.07828%
- % dMass (RH 28.68%, 0-90% RH): 0.08362%
- % dMass (RH 31.96%, 0-90% RH): 0.09341%
- % dMass (RH 35.18%, 0-90% RH): 0.1005%
- % dMass (RH 38.16%, 0-90% RH): 0.1076%
- % dMass (RH 41.24%, 0-90% RH): 0.1139%
- % dMass (RH 44.36%, 0-90% RH): 0.1165%
- % dMass (RH 47.56%, 0-90% RH): 0.1237%
- % dMass (RH 50.7%, 0-90% RH): 0.1334%
- % dMass (RH 53.86%, 0-90% RH): 0.1423%
- % dMass (RH 56.98%, 0-90% RH): 0.153%
- % dMass (RH 60.24%, 0-90% RH): 0.1646%
- % dMass (RH 63.9%, 0-90% RH): 0.1841%
- % dMass (RH 66.22%, 90-0% RH): 0.2046%
- % dMass (RH 66.66%, 0-90% RH): 0.2028%
- % dMass (RH 69.18%, 90-0% RH): 0.234%
- % dMass (RH 69.48%, 0-90% RH): 0.2251%
- % dMass (RH 72.34%, 90-0% RH): 0.3194%
- % dMass (RH 72.76%, 0-90% RH): 0.2562%
- % dMass (RH 75.26%, 90-0% RH): 0.3629%
- % dMass (RH 75.68%, 0-90% RH): 0.2936%
- % dMass (RH 77.96%, 90-0% RH): 0.4074%
- % dMass (RH 78.42%, 0-90% RH): 0.3371%
- % dMass (RH 80.84%, 90-0% RH): 0.4706%
- % dMass (RH 81.9%, 0-90% RH): 0.4163%
- % dMass (RH 83.48%, 90-0% RH): 0.5569%
- % dMass (RH 85.3%, 0-90% RH): 0.6218%
- % dMass (RH 85.94%, 90-0% RH): 0.693%
- % dMass (RH 88.38%, 0-90% RH): 0.9643%
- % dMass (RH 88.42%, 90-0% RH): 0.9723%
- hygroscopicity compared with Crystal Form Ib (above 74% relative humidity (RH)): less hygroscopic
Structure (SMILES): O=C(N[C@H]1CN2CCC1CC2)c1cc2ccoc2cn1 [Crystal Form Ia, N-[(3R)-1-azabicyclo[2.2.2]oct-3-yl]furo[2,3-c]pyridine-5-carboxamide]
